From US5204336A, “Naphthyl-,tetrahydronaphthyl-, and indanyl-substituted G-em-diphosphonates and process of use to treat hyperlipidemia” (Symphar S.A., priority 1992, dated 1993)

system: peroxide produced in rat liver homogenates; experiment: Antioxidant activity: FeSO4-generated peroxides in rat liver homogenate, thiobarbituric acid reaction; format: biochemical; conditions: rat liver homogenate incubated with FeSO4, thiobarbituric acid reaction; read-out: IC50, antioxidant activity (peroxide production)
Method: Rat liver homogenates were prepared according to Fraga, C. G. et al. Free Radicals Biol. Med., 4, 155, 1988 and Kornburst D. J. et al. Lipids 15, 315, 1980.
Peroxides were generated by incubation of the homogenate with the FeSO4 as described by Quitanilha A. T. et al. Ann. N.Y., Acad. Sci. 393, 32, 1982.
Compounds to be tested for their antioxidant activity were dissolved in DMSO and added to the incubation mixture. The amount of peroxide produced was determined by the thiobarbituric acid reaction using malonaldehyde as standard.

SMILES	IC50
CC(C)OP(=O)(OC(C)C)C(=Cc1cc(C(C)(C)C)c(O)c2ccccc12)P(=O)(OC(C)C)OC(C)C [Example 2]	700 nM
CCOP(=O)(OCC)C(=Cc1cc(C(C)(C)C)c(O)c2ccccc12)P(=O)(OCC)OCC [Example 1]	1500 nM
CCOP(=O)(OCC)C(=Cc1cc(C(C)(C)C)c(O)c2c1CCCC2)P(=O)(OCC)OCC [Example 6, Tetraethyl 2-(3-tert-butyl-4-hydroxy-5,6,7,8-tetrahydronaphthyl)-ethenylidene-1,1-diphosphonate]	7000 nM
CC(C)OP(=O)(OC(C)C)C(=Cc1cc(C(C)(C)C)c(O)c2c1CCCC2)P(=O)(OC(C)C)OC(C)C [Example 8, Tetraispropyl 2-[3-tert-butyl-4-hydroxy-5,6,7,8-tetrahydronaphthyl]-ethenylidene-1,1-diphosphonate]	2500 nM
